Where two headings read alike, the source gives them in different places.
Key:
[1] = biological target: KRAS G12D (Homo sapiens, UniProt P01116, G12D); test: In-vitro RAS-RAF binding assay (RRB), HTRF/FRET; format: biochemical; set-up: Biotinylated KRAS protein amino acids 1-169 (produced at Erasca); made in house; conditions: read-out: Inhibition of RAS-RAF Binding (in-vitro) KRAS (G12D) IC50
Method in brief: (§1)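 Compounds preincubated with terbium-labelled biotinylated KRAS (aa 1-169, 30 nM) before 60 min SOS1-catalysed exchange to GTPgS. Binding of the d2-labelled cRAF RBD (30 nM) is read as FRET at equilibrium in duplicate. Buffer: 50 mM HEPES pH 7.5, 100 mM NaCl, 1 mM MgCl2, 1 mM DTT.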

[2] = biological target: T1, KRas G12D fused to HiBiT peptide (Homo sapiens, UniProt P01116, G12D); test: ASPC-1 HiBit assay to determine G12D degradation; format: cell-based; conditions: AsPC-1 HiBiT cells, 24-hour incubation; read-out: ASPC-1 HiBit DC50 (C)
T1 construct: endogenous in cells; host or cells: AsPC-1 HiBiT knock-in single clone (Cas9 RNP + ssODN)
T1 sequence (P01116 1-188 isoform P01116-2 G12D): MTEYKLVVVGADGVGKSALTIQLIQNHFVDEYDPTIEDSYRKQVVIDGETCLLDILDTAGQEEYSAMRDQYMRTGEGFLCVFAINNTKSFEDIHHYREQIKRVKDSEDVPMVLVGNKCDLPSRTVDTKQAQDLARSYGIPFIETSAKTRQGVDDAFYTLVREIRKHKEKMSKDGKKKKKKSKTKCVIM
Description: Compounds presented herein induce degradation of the KRas G12D (KRasG12D) upon treatment of engineered cancer cell line.
The degradation of the KRasG12D in cellular environment was measured using engineered homozygous KRasG12D AsPC-1 cell line in which KRas G12D was fused to luminescent HiBiT peptide at the N-terminal. The small (1.3 kDa) HiBiT peptide complements with high affinity to a larger (18 kDa) subunit evolved from NanoLuc (termed LgBiT). The resulting complex (i.e., reconstituted luciferase enzyme) generates bright luminescence that translates to high sensitivity (1 amol), broad dynamic range (four orders of magnitude), and rapid kinetics for real time quantitation.
To generate HiBit KRasG12D knock-in cell line, sgRNA (SEQ. ID NO: 1) and ssODN (SEQ. ID NO: 2) were designed and synthesized at GenScript.
RNP complex was generated by mixing of 100 pmol of Cas9 protein to PCR tubes containing 300 pmol sgRNA incubating the resultant complex at room temperature for 20 min. […] ssODN was added to RNP complex slowly and RNP-ssODN complex was incubated at room temperature for 10 min. RNP-ssODN complex was mixed with […] of AsPC-1 cells (1×10^6 cells total) and electroporated using Nucleofactor (Program CM-150). Cells were then incubated at ambient temperature for 5 min and transferred to a six-well plate containing 2 ml growth medium.
To select pools with the highest luminescence signal, 10^4 cells of parental AsPC-1 and transfected pools were plated in solid white 384-well tissue culture plates. 24 hours after seeding, HiBiT was detected using the Nano-Glo HiBiT Lytic Detection System (Promega) following manufacturer's instructions. Briefly, […] of Nano-Glo HiBiT Lytic Detection Reagent was added directly to the cells and mixed by inversion before recording luminescence on an Envision (Perkin-Elmer) with 0.5 s integration time.
Single clones were isolated from stable pool by limited dilution method and presence of HiBiT knock-in was verified by TA cloning and subsequent sequencing. Additionally, western blotting analysis was conducted to confirm selection of single clones with high luminescence signal.
For DC50S measurements, AsPC-1 HiBiT single clone cells were grown in RPMI 1640 medium (Invitrogen 22400-089) supplemented with 10% fetal bovine serum. Cells were seeded in 384-well tissue culture plates at a density of 7,000 cells/well and allowed to attach for 24 hours.
Test compounds were distributed directly into assay plate with the adjustment for DMSO concentration using Tecan HP D300e. For most of the experiments, the final concentration of compounds starts from 10 μM, 3-fold dilution dose response and 10 doses. […] DMSO final concentration is 1%. Each concentration of exemplary compound was tested as singleton. The negative control wells were cells with DMSO only, and the positive control wells were cells with […] inhibitor.
Following 24-hour incubation with the compounds plate and Nano-Glo® HiBiT Lytic reagents were equilibrated to room temperature. 20 μL of HiBiT Lytic reagent were added to each well. The assay plate was incubated on digital microplate shaker (350 rpm) for 20 min followed by centrifugation at 500 g for 1 min. Luminescence was recorded using Envision (Perkin-Elmer) using aperture 384-L1 with 0.1 s integration time.
HiBiT signal are used to calculate the % degradation at given compound concentration using the following formula:
% Degradation=(1−(Sample HiBiT signal−Ave Min signal)/(Ave Max signal−Ave Min signal))*100%
For DC50 calculation, the data with the hook effect were removed first and DC50S was reported using a 4-parameter fit of dose response curve using GraphPad in those cases where maximum % degradation was >50% and Minimal % degradation was <50%. The decrease in DC50 reflects that the exemplary compound led to a higher level of degradation of KRasG12D than another exemplary compound at specific timepoint of treatment of cancer cell line. […]

[3] = biological target: T2, KRAS (WT) (Homo sapiens, UniProt P01116); test: In-vitro RAS-RAF binding assay (RRB), HTRF/FRET; format: biochemical; conditions: read-out: Inhibition of RAS-RAF Binding (in-vitro) KRAS (WT) IC50
T2 construct: Biotinylated KRAS protein amino acids 1-169 (produced at Erasca); made in house
T2 sequence (P01116 1-169 isoform P01116-2): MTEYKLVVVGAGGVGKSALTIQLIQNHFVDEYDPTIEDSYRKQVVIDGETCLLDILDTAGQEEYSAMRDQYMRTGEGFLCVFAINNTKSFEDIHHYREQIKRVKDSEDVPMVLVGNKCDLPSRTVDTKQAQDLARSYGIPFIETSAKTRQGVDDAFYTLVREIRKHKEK
Method in brief: as §1

[4] = Table 2, average of multiple runs of each compound

Chain of KRAS G12D (P01116 1-169 isoform P01116-2 G12D): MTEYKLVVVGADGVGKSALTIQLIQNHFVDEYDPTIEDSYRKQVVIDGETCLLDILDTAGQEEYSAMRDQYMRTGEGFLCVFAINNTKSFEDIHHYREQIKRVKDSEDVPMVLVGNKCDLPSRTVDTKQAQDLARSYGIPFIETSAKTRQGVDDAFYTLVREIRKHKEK

Row | IC50 [1, 4] [nM] | DC50 [2] [nM] | IC50 [3, 4] [nM] | IC50 ([1]; Table 1) [nM] | IC50 ([3]; Table 1) [nM] | Structure (SMILES)
1 | 20 | ≥ 10000 | 5000 | – | – | CC(C)[C@H](C(=O)N1C[C@H](O)C[C@H]1C(=O)N[C@@H](C)c1ccc(-c2c(F)cc(F)cc2F)cc1)c1cc(N2CC3(CCN(CCOc4nc(N5CC6CCC(C5)N6)c5cc(Cl)c(-c6ccc(F)c7sc(N)c(C#N)c67)c(F)c5n4)CC3)C2)no1 [Example 67, (2S,4R)-1-((2S)-2-(3-(7-(2-((7-(2-amino-3-cyano-7-fluorobenzo[b]thiophen-4-yl)-4-(3,8-diazabicyclo[3.2.1]octan-3-yl)-6-chloro-8-fluoroquinazolin-2-yl)oxy)ethyl)-2,7-diazaspiro[3.5]nonan-2-yl)isoxazol-5-yl)-3-methylbutanoyl)-4-hydroxy-N-((S)-1-(2′,4′,6′-trifluoro-[1,1′-biphenyl]-4-yl)ethyl)pyrrolidine-2-carboxamide]
2 | 23.9 | 843 | 836 | – | – | CC(C)[C@@H](C(=O)N1C[C@H](O)C[C@H]1C(=O)N[C@@H](C)c1ccc(-c2c(F)cc(F)cc2F)cc1)c1cc(N2CC3(CCN(CCOc4nc(N5CC6CCC(C5)N6)c5cc(C(F)(F)F)c(-c6ccc(F)c7sc(N)c(C#N)c67)c(F)c5n4)CC3)C2)no1 [Example 75, (2S,4R)-1-((2R)-2-(3-(7-(2-((7-(2-amino-3-cyano-7-fluorobenzo[b]thiophen-4-yl)-4-(3,8-diazabicyclo[3.2.1]octan-3-yl)-8-fluoro-6-(trifluoromethyl)quinazolin-2-yl)oxy)ethyl)-2,7-diazaspiro[3.5]nonan-2-yl)isoxazol-5-yl)-3-methylbutanoyl)-4-hydroxy-N-((S)-1-(2′,4′,6′-trifluoro-[1,1′-biphenyl]-4-yl)ethyl)pyrrolidine-2-carboxamide]
3 | 28.6 | 501 | 5500 | – | – | CC(C)[C@@H](C(=O)N1C[C@H](O)C[C@H]1C(=O)N[C@@H](C)c1ccc(-c2c(F)cccc2F)cc1)c1cc(N2CC3(CCN(CCOc4nc(N5CC6CCC(C5)N6)c5cc(Cl)c(-c6ccc(F)c7sc(N)c(C#N)c67)c(F)c5n4)CC3)C2)no1 [Example 70, (2S,4R)-1-((2R)-2-(3-(7-(2-((7-(2-amino-3-cyano-7-fluorobenzo[b]thiophen-4-yl)-4-(3,8-diazabicyclo[3.2.1]octan-3-yl)-6-chloro-8-fluoroquinazolin-2-yl)oxy)ethyl)-2,7-diazaspiro [3.5]nonan-2-yl)isoxazol-5-yl)-3-methylbutanoyl)-N-((S)-1-(2′,6′-difluoro-[1,1′-biphenyl]-4-yl)ethyl)-4-hydroxypyrrolidine-2-carboxamide]
4 | 11.2 | 77.5 | 86.8 | 11.3 | 86.8 | C[C@H](NC(=O)[C@@H]1C[C@@H](O)CN1C(=O)[C@@H](NC(=O)CCOCCCN1CCCC1COc1nc(N2CC3CCC(C2)N3)c2cc(Cl)c(-c3ccc(F)c4sc(N)c(C#N)c34)c(F)c2n1)C(C)(C)C)c1ccc(-c2c(F)cccc2F)cc1 (stereo partly drawn) [Example 12, (2S,4R)-1-[(2S)-2-[3-[3-[2-[[7-(2-amino-3-cyano-7-fluoro-benzothiophen-4-yl)-6-chloro-4-(3,8-diazabicyclo[3.2.1]octan-3-yl)-8-fluoro-quinazolin-2-yl]oxymethyl]pyrrolidin-1-yl]propoxy]propanoylamino]-3,3-dimethyl-butanoyl]-N-[(1S)-1-[4-(2,6-difluorophenyl)phenyl]ethyl]-4-hydroxy-pyrrolidine-2-carboxamide]

Reference: patent US20240293558A1, “KRAS INHIBITOR CONJUGATES” (Erasca, Inc., priority 2021, published 2024)
